Tests used:
[1] = system: mTORC1 pathway in heart; assay: Chronic 6-week treatment: heart immunoblots; assay type: in vivo; details: N171-82Q mice, 160 mg/kg daily 6 weeks, 1 hour after dosing
Protocol: Specific regions of the brain and heart were homogenized using a Next Advance Bullet Blender Storm in Lysis Buffer (Cell lysis buffer: 1% Triton X-100, 50 mM HEPES pH 7.4, 100 mM sodium chloride, 2 mM EDTA, 10 mM Beta-glycerophosphate, 10 mM Sodium pyrophosphate, and 1 protease inhibitor) at 4°C. Lysates were cleared by centrifugation at 13,200 rpm at 4°C for 10 minutes. Equal amounts of total protein from each sample were denatured and, resolved by SDS-PAGE. Membranes were imaged using the LI-COR imaging system. Proteins levels are normalized to tubulin, actin or GAPDH levels and further normalized to vehicle treated mice for each tissue.
Fig 5 Oral dosing with NV-5297 over 6 weeks improves cardiac function and activates the mTORC1 pathway. (A) Representative M-mode echocardiograms from transthoracic echocardiography at 6 weeks and 12 weeks of vehicle and NV-5297 treated N171-82Q males. (B) Heart weight corrected for the animal’s standard length (tibia length) at 12 weeks. (C) Left ventricular measurements obtained by transthoracic echocardiography by deducting the end treatment (12 weeks) from the baseline (6 weeks) measurements. Variation in cardiac output [CO], ejection fraction [EF], fractional shortening [FS], stroke volume (SV) and Heart rate [HR]. (D) Representative immunoblots for normalized phosphorylated S6 (^S240/244pS6), S6, phosphorylated Akt (^S437pAkt), Akt, phosphorylated mTOR (^S2448pmTOR), mTOR, phosphorylated 4E-BP1 (^Thr37/46p4E-BP1), 4E-BP1 and Actin in homogenized heart. (E) Quantification of the immunoblots for homogenized heart isolated 1 hour after oral dosing with NV-5297 (160 mg/kg; n = 14) normalized to loading control levels and further normalized to vehicle (Veh) treated mice (n = 15). Data are presented as mean ± SEM. *P ≤ 0.05, **P ≤ 0.01, ***P ≤ 0.001 (unpaired Kruskal-Wallis test with Dunn’s multiple comparison test [B], unpaired one-tailed Student’s t-tests [C, E pmTOR] with a Welch’s correction [pS6/S6, pmTOR/mTOR] or a Mann-Whitney test [pAkt/Akt, p4E-BP1/4E-BP1]).

[2] = system: N171-82Q HD mice; assay: Chronic 6-week treatment: echocardiography and heart weight; assay type: in vivo; details: N171-82Q mice, 160 mg/kg daily 6 weeks
Description: Animals were sacrificed by live decapitation one hour after the last oral dosing. Whole hearts were excised, blot-dried and weighed on an analytical balance. The heart was bisected transversely and the apical halves was preserved for cardiomyocyte and fibrosis staining. Left tibias were isolated and measured with an electronic caliper. The brain left hemisphere was preserved for MSN size measurement. The brain right hemisphere was microdissected and the medial pre-frontal cortex, striatum, cortex, hippocampus and cerebellum were collected.
Mice were anesthetized with 2% isoflurane and restrained on a stage with electrocardiogram (EKG) sensors. Transthoracic echocardiograms were performed using the Vevo 3100 Imaging System with a linear array MX550D transducer. Images were acquired by an experienced echocardiographer and then analyzed offline using the Vevo LAB analysis software. Parasternal long axis views and short axis views were used to assess left ventricular function. Measurements were performed to evaluate left ventricular dimensions during both systole and diastole of the cardiac cycle. The Vevo LAB left ventricle [LV] analysis tool, LV trace, was used to calculate cardiac output [CO] (heart rate ∙ stroke volume), fractional shortening [FS] (ventricle diameter at the end of the diastole–ventricle diameter at the end of the systole), ejection fraction [EF] (percentage of blood ejected by the left ventricle by heart beat), stroke volume (SV) (blood volume ejected from the left ventricle per beat), heart rate [HR] (bpm), left ventricular mass [LVmass], dimensions and volumes. Both imaging and analysis were performed by an operator blinded to the mice experimental treatment.
Fig 5 Oral dosing with NV-5297 over 6 weeks improves cardiac function and activates the mTORC1 pathway. […] (E) Quantification of the immunoblots for homogenized heart isolated 1 hour after oral dosing with NV-5297 (160 mg/kg; n = 14) normalized to loading control levels and further normalized to vehicle (Veh) treated mice (n = 15). […]

[3] = system: Npr13KO HEK293T cells; assay: mTORC1 activation (p70S6K1) in HEK293T cells null for GATOR1 component Nprl3; assay type: cell-based; details: leucine-starved 50 minutes, treatment 10 minutes
Protocol: All cell lines were cultured in DMEM (Corning, #MT10013CV) supplemented with 10% heat-inactivated FBS (Gibco, #16140–071). All cell lines were maintained at 37°C and 5% CO2. For amino acid starvation, cells were rinsed once with and incubated Amino acid-free RPMI (US Biologicals, #R8999-04A) supplemented with 10% dialyzed FBS (Gibco, #26400044) for 50 min followed by treatment with NV-5297, leucine, or vehicle for 10 minutes. For leucine starvation, cells were rinsed once with and incubated in leucine-free DMEM (AthenaES, #0420) supplemented with 10% dialyzed FBS (Gibco, #26400044) for 50 minuted followed by treatment with NV-5297, leucine, or vehicle for 10 minutes.
To ascertain if Sestrins and the GATOR pathway are required for NV-5297 activity, we tested mTORC1 activation in cells null for either all three Sestrin isoforms [SesnTKO] or for the GATOR1 component Npr13 [Npr13KO] [44]. […]
(A) Activation of the mTORC1 pathway by NV-5297. […] Representative immunoblots of ^T389pS6K1 and quantification of the normalized level of ^T389pS6K1 from 8 independent experiments (F) show TORC1 activity in unedited HEK-293T cells, HEK-293T cells deficient for Sestrin 1 (Sesn1), 2 (Sesn2) and 3 (Sesn3) (D) or HEK-293T cells deficient for the GATOR1 component Nprl3 (E) after 50 minutes leucine starvation followed by the addition of vehicle, NV-5297 or leucine for 10 minutes. […]

CC(C)(C[C@H](N)C(=O)O)C(F)(F)F [NV-5297, (S)-2-amino-5,5,5-trifluoro-4,4-dimethylpentanoic acid]
heart p4E-BP1 level versus controls [1]: elevated
heart pS6 level versus controls [1]: elevated
heart pmTOR level versus controls [1]: elevated
heart mass [2]: no discernable effect
ejection fraction compared to vehicle ([2]; echocardiography): increased
fractional shortening compared to vehicle ([2]; echocardiography): increased
p70S6K1 levels [3]: remained unchanged

From paper PMC9423655, “Huntington’s disease phenotypes are improved via mTORC1 modulation by small molecule therapy” (PLoS ONE, 2022)
